Laboratory results taken from US6358885B1, “Substituted phenylheterocyclic herbicides” (Mississippi State University, priority 1992, dated 2002).

Experiments:
barnyardgrass = assay: Test B preemergence/postemergence greenhouse plant response rating 0 to 10; type: in vivo, Echinochloa crus-galli; conditions: for Plant response rating, Barnyardgrass: 0 to 10 scale
Summary of the method: (§1)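 Planted seeds are treated preemergence with compound dissolved in a non-phytotoxic solvent, while postemergence applications go onto plants of two to eighteen cm. Plants stay in the greenhouse twelve to sixteen days and are then rated visually relative to controls.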

cocklebur = assay: as above; type: in vivo, Xanthium pensylvanicum; conditions: for Plant response rating, Cocklebur: 0 to 10 scale
Summary of the method: as §1

cotton = assay: as above; type: in vivo, Gossypium hirsutum; conditions: for Plant response rating, Cotton: 0 to 10 scale
Summary of the method: as §1

morningglory = assay: as above; type: in vivo, Ipomoea hederacea; conditions: 0 to 10 scale
Summary of the method: as §1

rice [1] = assay: as above; type: in vivo, Oryza sativa; conditions: 0 to 10 scale
Summary of the method: as §1

sorghum = assay: as above; type: in vivo, Sorghum bicolor; conditions: 0 to 10 scale
Summary of the method: as §1

wheat = assay: as above; type: in vivo, Triticum aestivum; conditions: 0 to 10 scale
Summary of the method: as §1

wild oat = assay: as above; type: in vivo, Avena fatua; conditions: 0 to 10 scale
Summary of the method: as §1

blackgrass = assay: Test C preemergence/postemergence greenhouse plant response rating 0 to 100; type: in vivo, Alopecurus myosuroides; conditions: for Plant response rating, Blackgrass: 0 to 100 scale
Summary of the method: (§2)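 Compounds in non-phytotoxic solvent applied preemergence to sandy loam one day after planting, postemergence at the 1–4 leaf stage, or to ~2.5 cm floodwater over silt loam.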

crabgrass = assay: as above; type: in vivo, Digitaria sanguinalis; conditions: for Plant response rating, Crabgrass: 0 to 100 scale
Summary of the method: as §2

rape = assay: as above; type: in vivo, Brassica napus; conditions: for Plant response rating, Rape: 0 to 100 scale
Summary of the method: as §2

rice [2] = assay: Test C flood test plant response rating 0 to 100; type: in vivo, Oryza sativa; conditions: for Plant response rating Rice Japonica: flood test species listed under POSTEMERGENCE, 0 to 100 scale
Summary of the method: as §2

umbrella sedge = assay: Test C flood test plant response rating 0 to 100; type: in vivo, Cyperus difformis; conditions: for Plant response rating Umbrella sedge: flood test species listed under POSTEMERGENCE, 0 to 100 scale
Summary of the method: as §2

sandbur = assay: Test G preemergence/postemergence greenhouse plant response rating 0 to 100; type: in vivo, Cenchrus echinatus; conditions: 0 to 100 scale
Description: Seeds, rhizomes, or plant parts of alfalfa (Medicago ativa), annual bluegrass (Poa annua), bermudagrass (Cynodon dactylon), broadleaf signalgrass (Brachiaria plantaginea), common purslane (Portulaca oleracea), common ragweed (Ambrosia elatior), […] (Paspalum dilatatum), goosegrass (Eleusine indica), guineagrass (Panicum maximum), […] exaltata), johnsongrass (Sorghum halepense), large crabgrass (Digitaria sanguinalis), peanut (Arachis hypoagaea), pitted morningglory (Ipomoea lacunosa), purple nutsedge (Cyperus rotundus), sandbur (Cenchrus echinatus), smooth crabgrass (Digitaria ischaemum) and yellow nutsedge (Cyperus esculentus) were planted into greenhouse pots containing greenhouse planting medium. Each pot contained only one plant species. The test compound was dissolved in a non-phytotoxic solvent and applied preemergence and/or postemergence to the plants. Preemergence applications were made within one day of planting the seeds or plant parts. Postemergence applications were applied when the plants were in the two to four leaf stage (three to twenty cm). Test chemicals were dissolved in a non-phytotoxic solvent and applied preemergence and postemergence to the plants. Untreated control plants and treated plants were placed in the greenhouse and visually evaluated for injury at 13 to 21 days after herbicide application. […] A dash (-) response indicates no test result.

[3] = POSTEMERGENCE section, flood test, Rate 4 g/ha
[4] = Rate 16 g/ha, under POSTEMERGENCE head (flood test species)

C#CCOc1cc(-c2nn3c(c2Br)CCCC3)c(F)cc1Cl [Compound 26]
9: Plant response rating, Cocklebur (cocklebur; Rate 200 g/ha, PREEMERGENCE) | Plant response rating, Cotton (cotton; Rate 200 g/ha, PREEMERGENCE) | Plant response rating, Morningglory (morningglory; POSTEMERGENCE, Rate 50 g/ha) | Plant response rating, Morningglory (morningglory; POSTEMERGENCE, Rate 200 g/ha) | Plant response rating, Morningglory (morningglory; Rate 200 g/ha, PREEMERGENCE)
1: Plant response rating, Cocklebur (cocklebur; PREEMERGENCE, Rate 50 g/ha) | Plant response rating, Wheat (wheat; PREEMERGENCE, Rate 50 g/ha)
4: Plant response rating, Sorghum (sorghum; Rate 200 g/ha, PREEMERGENCE) | Plant response rating, Wheat (wheat; POSTEMERGENCE, Rate 50 g/ha)
30: Plant response rating (0 to 100), Blackgrass (blackgrass; Rate 4 g/ha, POSTEMERGENCE) | Plant response rating, Rape (rape; PREEMERGENCE, 250 g/ha)
6: Plant response rating, Rice (rice [1]; POSTEMERGENCE, Rate 200 g/ha) | Plant response rating, Sorghum (sorghum; POSTEMERGENCE, Rate 200 g/ha) | Plant response rating, Wild oat (wild oat; Rate 200 g/ha, PREEMERGENCE)
100: Plant response rating, Rape (rape; POSTEMERGENCE, 62 g/ha) | Plant response rating, Rape (rape; POSTEMERGENCE, 250 g/ha) | Plant response rating Umbrella sedge (umbrella sedge; 250 g/ha)
70: Plant response rating, Blackgrass (blackgrass; POSTEMERGENCE, 250 g/ha) | Plant response rating (0 to 100), Umbrella sedge (umbrella sedge; [4])
5: Plant response rating (0 to 10 scale), Barnyardgrass (barnyardgrass; POSTEMERGENCE, Rate 50 g/ha) | Plant response rating, Rice (rice [1]; POSTEMERGENCE, Rate 50 g/ha) | Plant response rating, Sorghum (sorghum; POSTEMERGENCE, Rate 50 g/ha) | Plant response rating, Wheat (wheat; POSTEMERGENCE, Rate 200 g/ha) | Plant response rating, Wild oat (wild oat; POSTEMERGENCE, Rate 50 g/ha)
80: Plant response rating (0 to 100), Rape (rape; POSTEMERGENCE, Rate 4 g/ha) | Plant response rating Rice Japonica (rice [2]; 62 g/ha)
7: Plant response rating, Barnyardgrass (barnyardgrass; POSTEMERGENCE, Rate 200 g/ha) | Plant response rating, Barnyardgrass (barnyardgrass; Rate 200 g/ha, PREEMERGENCE) | Plant response rating, Wild oat (wild oat; POSTEMERGENCE, Rate 200 g/ha)
3: Plant response rating, Cotton (cotton; PREEMERGENCE, Rate 50 g/ha) | Plant response rating, Rice (rice [1]; Rate 200 g/ha, PREEMERGENCE)
85: Plant response rating Rice Japonica (rice [2]; 250 g/ha)
65: Plant response rating (0 to 100), Rice Japonica (rice [2]; [4])
10: Plant response rating (0 to 10 scale), Cocklebur (cocklebur; POSTEMERGENCE, Rate 50 g/ha) | Plant response rating, Cocklebur (cocklebur; POSTEMERGENCE, Rate 200 g/ha) | Plant response rating (0 to 10 scale), Cotton (cotton; POSTEMERGENCE, Rate 50 g/ha) | Plant response rating, Cotton (cotton; POSTEMERGENCE, Rate 200 g/ha)
0: Plant response rating, Rice (rice [1]; PREEMERGENCE, Rate 50 g/ha) | Plant response rating (0 to 100), Blackgrass (blackgrass; PREEMERGENCE, Rate 4 g/ha) | Plant response rating (0 to 100), Blackgrass (blackgrass; Rate 16 g/ha, PREEMERGENCE) | Plant response rating (0 to 100), Crabgrass (crabgrass; POSTEMERGENCE, Rate 4 g/ha) | Plant response rating (0 to 100), Crabgrass (crabgrass; PREEMERGENCE, Rate 4 g/ha) | Plant response rating (0 to 100), Crabgrass (crabgrass; Rate 16 g/ha, POSTEMERGENCE) | Plant response rating (0 to 100), Crabgrass (crabgrass; Rate 16 g/ha, PREEMERGENCE) | Plant response rating (0 to 100), Rape (rape; PREEMERGENCE, Rate 4 g/ha) | Plant response rating (0 to 100), Rape (rape; Rate 16 g/ha, PREEMERGENCE) | Plant response rating (0 to 100), Umbrella sedge (umbrella sedge; [3]) | Plant response rating, S. Sandbur (sandbur; POSTEMERGENCE, Rate 125 g/ha) | Plant response rating, S. Sandbur (sandbur; POSTEMERGENCE, Rate 250 g/ha) | Plant response rating, S. Sandbur (sandbur; PREEMERGENCE, Rate 125 g/ha) | Plant response rating, S. Sandbur (sandbur; PREEMERGENCE, Rate 250 g/ha)
40: Plant response rating, Blackgrass (blackgrass; POSTEMERGENCE, 62 g/ha) | Plant response rating, Blackgrass (blackgrass; PREEMERGENCE, 250 g/ha) | Plant response rating (0 to 100), Blackgrass (blackgrass; Rate 16 g/ha, POSTEMERGENCE) | Plant response rating, Crabgrass (crabgrass; POSTEMERGENCE, 250 g/ha) | Plant response rating (0 to 100), Rice Japonica (rice [2]; [3])
90: Plant response rating (0 to 100), Rape (rape; Rate 16 g/ha, POSTEMERGENCE)
60: Plant response rating, Crabgrass (crabgrass; PREEMERGENCE, 250 g/ha)
2: Plant response rating, Barnyardgrass (barnyardgrass; PREEMERGENCE, Rate 50 g/ha) | Plant response rating, Morningglory (morningglory; PREEMERGENCE, Rate 50 g/ha) | Plant response rating, Sorghum (sorghum; PREEMERGENCE, Rate 50 g/ha) | Plant response rating, Wheat (wheat; Rate 200 g/ha, PREEMERGENCE)
20: Plant response rating, Blackgrass (blackgrass; PREEMERGENCE, 62 g/ha) | Plant response rating, Crabgrass (crabgrass; POSTEMERGENCE, 62 g/ha) | Plant response rating, Crabgrass (crabgrass; PREEMERGENCE, 62 g/ha) | Plant response rating, Rape (rape; PREEMERGENCE, 62 g/ha)
95: Plant response rating Umbrella sedge (umbrella sedge; 62 g/ha)
